From patent US8124629B2, “Naphthylacetic acids” (Hoffmann-La Roche Inc., priority 2008, dated 2012) come the findings set out here.

For data set [1], the target named is T1, human CRTH2 (Homo sapiens, UniProt Q9Y5Y4).
T1 sequence (Q9Y5Y4 1-395): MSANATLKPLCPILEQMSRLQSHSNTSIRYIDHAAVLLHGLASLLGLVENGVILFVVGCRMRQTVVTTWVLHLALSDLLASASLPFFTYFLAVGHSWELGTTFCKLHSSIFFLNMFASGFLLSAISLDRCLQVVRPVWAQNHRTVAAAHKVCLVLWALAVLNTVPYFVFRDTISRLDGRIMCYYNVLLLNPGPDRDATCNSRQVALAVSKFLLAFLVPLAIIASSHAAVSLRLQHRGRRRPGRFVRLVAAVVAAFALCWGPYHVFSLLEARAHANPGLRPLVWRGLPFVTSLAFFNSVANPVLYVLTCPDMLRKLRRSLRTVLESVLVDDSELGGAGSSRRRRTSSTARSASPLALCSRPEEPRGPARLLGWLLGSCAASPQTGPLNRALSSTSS
Put plainly: Human CRTH2 Receptor Binding Assay (whole cell, [3H]ramatroban). On the set-up: expressed in transfected cells; host or cells: CHO-K1. The conditions noted are these: CHO-K1 cells expressing human CRTH2 and G-alpha16; 20 nM [3H]ramatroban; 1 hour, room temperature. Put shortly:
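CHO-K1 cells stably co-expressing human CRTH2 and G-alpha16, 1.5×10^5 cells/reaction, bound 1 h at room temperature with 20 nM [3H]ramatroban in PBS, 10 mM MgCl2, 0.06% BSA. Filter-bound radioactivity counted; non-specific binding defined with 10 μM 15(R)-15-methyl PGD2. IC50 from 4-parameter fit of 7-concentration inhibition data.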

The test system of data set [2] is DK-PGD2-induced IL-13 production in Th2 cells. The experiment in a line: DK-PGD2-Induced IL-13 Production Assay in Th2 Cells. The conditions noted are these: human Th2 cells; 500 nM DK-PGD2; 4 hrs at 37° C.; IL-13 by ELISA; read-out: IC50 for inhibition of IL-13 production. Type of data set: cell-based. Here is the method:
Inhibition of 13,14-dihydro-15-keto Prostaglandin D2 (DK-PGD2)-induced IL-13 production in T helper type 2 (Th2) cells was applied to evaluate compound cellular potency.
Cultures of Th2 cells were established from blood of healthy human volunteers according to the following procedure. Peripheral blood mononuclear cells (PBMC) were first isolated from 50 mL of fresh blood by Ficoll-Hypaque density gradient centrifugation, followed by CD4^+cell purification using a CD4^+T Cell Isolation Kit II (from Miltenyi Biotec Inc.). The CD4^+T cells were then differentiated to Th2 cells by culturing the cells in X-VIVO 15® medium (from Cambrex BioScience Walkersville Inc.) containing 10% human AB serum (serum of blood type AB from Invitrogen Corporation), 50 U/mL of recombinant human interleukin-2 (rhIL-2) (from PeproTech Inc.) and 100 ng/mL of recombinant human interleukin-4 (rhIL-4) (from PeproTech Inc.) for 7 days. The Th2 cells were isolated using a CD294 (CRTH2) MicroBead Kit (from Miltenyi Biotec Inc.) and amplified in X-VIVO 15® medium containing 10% human AB serum and 50 U/mL of rhIL-2 for 2 to 5 weeks. In general, 70% to 80% of the Th2 cells used in the assay are CRTH2-positive when analyzed by fluorescence-activated cell sorting using the BM16 antibody (as previously described) conjugated to phycoerythrin (PE).
The spontaneous production of IL-13 by Th2 cells was determined in the absence of DK-PGD2 stimulation and the value was subtracted from that in the presence of each compound for percent inhibition and IC50 calculations.
The percent inhibition of interleukin 13 (IL-13) production for a compound at various concentrations was calculated according to the following formula, [1-(IL-13 production in the presence of compound)/(IL-13 production in the presence of 0.15% DMSO)]×100. […]
(An ELISA detects its analyte on a solid surface through an enzyme-linked reagent.)

In general, IC50 refers to the midpoint of a concentration-inhibition curve. A word on the melting point: it is the temperature of the solid-liquid transition. The compound `Cc1c(CC(=O)O)cc2ccc(F)cc2c1Cc1ccc(S(=O)(=O)C(F)(F)F)cc1` [Example 11-1, [6-Fluoro-3-methyl-4-(4-trifluoromethanesulfonyl-benzyl)-naphthalen-2-yl]-acetic acid] showed a melting point of 200 to 201 °C. This compound had an IC50 in data set [1] of 3 nM.

As for `CS(=O)(=O)c1ccc(Cc2cc(CC(=O)O)cc3cc(C(F)(F)F)ccc23)cc1` [Example 8-3, [4-(4-Methanesulfonyl-benzyl)-7-trifluoromethyl-naphthalen-2-yl]-acetic acid], the IC50 was greater than 10000 nM in data set [2] and 162 nM in data set [1].

Regarding `CS(=O)(=O)c1ccc(C(=O)c2cc(CC(=O)O)cc3ccc(C(F)(F)F)cc23)cc1` [Example 2-29, [4-(4-Methanesulfonyl-benzoyl)-6-trifluoromethyl-naphthalen-2-yl]-acetic acid], the IC50 is 3000 nM in data set [2] and 7.5 nM in data set [1].

Take `Cc1ccc2cc(CC(=O)O)cc(C(O)c3ccc(S(C)(=O)=O)cc3)c2c1` (centres unmarked) [Example 16-2, {4-[Hydroxy-(4-methanesulfonyl-phenyl)-methyl]-6-methyl-naphthalen-2-yl}-acetic acid]: the IC50 in data set [2] worked out at 5750 nM; in data set [1], 386 nM.
